# According to patent publication US20260324636A1, “COMPOSITION FOR PROVIDING PLANT WITH STRESS RESISTANCE” (KIRIN HOLDINGS KABUSHIKI KAISHA, priority 2022, published 2026):
# Tests used:
# rice = assay: Oxidation stress resistance against methyl viologen in rice (leaf chlorosis, chlorophyll content), Example 9; assay type: in vivo, rice (variety: Nipponbare); details: 0.5 mM, 2.5 μM methyl viologen, 30° C. 3 days
# Experimental: A rice strain (the variety: Nipponbare) was used as an experimental material. Rice seeds were purchased from Nouken.
# A Murashige and Skoog Plant Salt Mixture (2.2 g) was dissolved in 1 l of pure water, a pH was adjusted to 5.8, and the resultant was autoclaved (121° C., 20 minutes).
# Seeds were sterilized by incubation with the use of a Kitchen Haiter® diluted to 2-fold with pure water for 20 minutes. The sterilized seeds were washed 3 times with sterile water, 30 grains of seeds were soaked in a 50-ml conical tube (Falcon) containing 10 ml of sterile water, and the seeds were cultured in an incubator maintained at 30° C. (16 hours light and 8 hours darkness) for 3 days to germinate the seeds.
# After the seeds were incubated for 3 days, the growth medium was dispensed at 3 ml/well to the sterilized 12-well microplate (IWAKI), and the germinated seeds were seeded at 3 grains/well. To each well, 0.5 mM N-acetylglutamic acid or an equivalent amount of sterile water was added, and the seeds were incubated at 30° C. for 1 day. […]
# Leaf chlorosis is observed in plants upon oxidation stress exposure. Thus, an extent of chlorosis was evaluated by measuring the content of the green pigment chlorophyll in leaves. […] The chlorophyll content was calculated in the same manner as in Example 1.
# ZAT10 = assay: Histone H4 acetylation level of ZAT10 by chromatin immunoprecipitation and quantitative PCR, Example 14; assay type: in vivo, Arabidopsis thaliana (Col-0); details: Arabidopsis thaliana; 0.4 mM in medium, 2 hours after application; read-out: histone H4 acetylation level of ZAT10, increase vs group not subjected to the treatment
# Experimental: (§1) A wild-type Arabidopsis thaliana strain (accession: Col-0) was used as an experimental material. Seeds were purchased from Inplanta Innovations Inc.
# (§2) A liquid medium containing a ½ Murashige and Skoog Plant Salt Mixture (Nacalai) and 1 (w/v) % sucrose (FUJIFILM Wako) was used as a growth medium.
# (§3) Arabidopsis thaliana seeds were sterilized with the use of a Kitchen Haiter® liquid (Kao Corporation) diluted to one-half concentration with distilled water for 3 minutes, washed 3 times with sterile distilled water, and then incubated at 4° C. overnight. The growth medium (100 ml) was prepared in a 300-ml flask, the incubated seeds were seeded therein, the flask was transferred to an incubator (TOMY), and shake culture was then initiated. The incubator was maintained at a temperature of 22° C. for a daily cycle of 16 hours light and 8 hours darkness, and the rotation speed of the shaker was set at 180 rpm.
# (§4) A stock solution of N-acetylglutamic acid (Tokyo Chemical Industry Co., Ltd.) was added to Arabidopsis thaliana 7 days after seeding to the final concentration of 0 mM and 0.4 mM in the media, followed by incubation for 2 hours. Sample fixation following incubation was performed in accordance with Yamaguchi et al (Arabidopsis Book, Feb. 17, 2014; 12: e0170). […]
# HSFA2 = assay: Histone H4 acetylation level of HSFA2 by chromatin immunoprecipitation and quantitative PCR, Example 14; assay type: in vivo, Arabidopsis thaliana (Col-0); details: Arabidopsis thaliana; 0.4 mM in medium, 2 hours after application; read-out: histone H4 acetylation level of HSFA2, increase vs group not subjected to the treatment
# Experimental: as §1, §2, §3, §4
structure (smiles),measurement,setting,value
CC(=O)N[C@@H](CCC(=O)O)C(=O)O [N-acetylglutamic acid],leaf chlorosis in MV-treated group,rice,substantially no leaf chlorosis was observed
same,chlorophyll content of the MV-treated groups,"rice; second leaf, fresh weight basis",increased
same,fold induction at 400 µM,ZAT10,1.9
same,fold induction at 400 µM,HSFA2,2
